Results as given in PMC4227698, “Poly(Ethylene Glycol) as a Scaffold for High-Affinity Open-Channel Blockers of the Mouse Nicotinic Acetylcholine Receptor” (PLoS ONE, 2014).
Like-named read-outs stand apart in the source and are kept apart here.

Assays:
muscle-type AChR = details: cited from earlier work; for blocking rate constant k+B / unblocking rate constant k–B: ref Table S1 refs 1-12
[1] = molecular target: T1, adult mouse muscle AChR (α, β, δ, ε) (Mus musculus, UniProt P02716+P04756+P09690+P20782, V433A); experiment: Single-channel patch-clamp analysis of open-channel blockade of AChRs expressed in HEK-293 cells; format: cell-based; details: for effect on apparent mean open time (τapp): 100 µM ACh with 5, 10 or 20 µM PEG-QA; for unblocking rate constant k–B / blocking rate constant k+B: cell-attached; for unblocking rate constant k–B: average of unblocking rates at all tested concentrations; for blocking rate constant k+B: slope of linear fit of blocking rates
T1 construct: expressed in transfected cells; host or cells: HEK-293 cells (ATCC CRL-1573), transient calcium phosphate transfection, α:β:δ:ε = 2:1:1:1
Method: The cDNA clones of adult mouse muscle AChR subunits (α, β, δ, ε) in the vector pRBG4 were generously provided by Professor Anthony Auerbach (University at Buffalo, NY). […] Human embryonic kidney cells (HEK-293 cells, ATCC CRL-1573) were transiently transfected by calcium phosphate precipitation. In brief, HEK-293 cells were maintained in Dulbecco's […] (Invitrogen) supplemented with 10% Fetal Bovine Serum (Invitrogen) at 37°C and 5% CO2. Cells were plated 24 h before transfection to reach a confluence of 40–60%. A total of 3.5 µg DNA per 35-mm culture dish (α:β:δ:ε = 2∶1∶1∶1) was used. […] The medium was changed 24 h after the addition of DNA, and patch-clamp recordings were carried out 20–36 h thereafter.
Single-channel currents from AChRs were recorded using patch-clamp techniques in the cell-attached configuration. For dose-dependence measurements, a holding potential of +70 mV was applied. Kinetic analysis of single-channel currents was carried out using the QuB suite, [12]. The currents were idealized using the segmented k-means (SKM) hidden Markov algorithm at full bandwidth (10 kHz). Kinetic modeling of the idealized intervals was performed using the maximum interval likelihood (MIL) method, [12]. Additional details of recording and data analysis are provided in File S1.
MIL analysis on 2–4 cells was performed to determine the apparent mean open time (τapp), blocking rate, and unblocking rate for each measuring condition (reported as mean ± SEM). Uncertainties in the blocking rate constant (k+B values in Figure 2F) are reported as the standard errors in the least squares fits.
To test this hypothesis, we characterized the blockade kinetics of a series of PEG-QA conjugates (PQ1–PQ5; Figure 1) using patch-clamp electrophysiology. These conjugates were prepared from a short PEG, octa (ethylene glycol), through a three-step conversion (File S1). The chosen QA groups are small relative to the backbone length, and the hydrodynamic radii of these compounds are therefore expected to be similar. The kinetics and microscopic equilibrium affinity of channel blockade were determined by analyzing the acetylcholine (ACh)-elicited currents at the single-channel level. Channel activities were measured at 100 µM ACh in the absence or presence of 5, 10, or 20 µM of PEG-QA. […] The brief gaps within the clusters represent channel closing events.
Typical open-channel blockers follow a sequential blockade mechanism: the channel opens in response to ACh binding, and the blocker reversibly binds and dissociates from the transmembrane pore before the channel closes (Figure 1 and File S1). […] A new population of non-conducting blockade events, in addition to the brief closing and the long desensitized dwells, is also observed. These blockade events manifest themselves as a new component in the closed-time histogram. The relative area of the blockade component increases with increasing blocker concentration (reflecting the concentration-dependent rate of pore blockade), while the lifetime of this component (τB) is independent of blocker concentration (reflecting the unimolecular nature of blocker dissociation). These kinetic features allow the blocking and unblocking rate constants (k+B and k–B, respectively) to be determined by fitting of the dwell times under each set of conditions (File S1). […]
were amplified (Axopatch 200B, Axon Instruments, Foster City, CA), low-pass filtered at 10 kHz, and digitized at 20 kHz (NI 6040 E Data Acquisition Board, National Instruments, Austin, TX). Data were recorded directly to a desktop PC hard drive using the QuB software (www.qub.buffalo.edu).
1.3. Analysis of single-channel data (see also: Figure S1)
Kinetic analysis of single-channel currents was carried out using the QuB suite. The currents were idealized using the segmented k-means (SKM) hidden Markov algorithm at full bandwidth (10 kHz). Kinetic modeling of the idealized intervals […]

[2] = molecular target: T1, adult mouse muscle AChR (α, β, δ, ε); experiment: Agonist potency of PEG-QA alone, single-channel recording; format: cell-based; details: 10 µM in the pipette solution without other agonists, +70 mV
Source text: Various QA compounds, including the prototype PEG-QA (PQ0), have been previously reported as agonists for the muscle-type AChR [8], [19], [26]–[28]. […] The agonist potencies of PEG-QAs correlate roughly inversely with the size of their QA groups (except PQ4; Figure S4). […] The low agonist potencies of PQ3 and PQ5 may be attributable to their bulky QA groups, which may cause reduced affinities for the agonist-binding pocket and/or interfere with receptor conformational changes required for channel gating. Open-channel blockers with low agonist potencies may be favorable in some applications, since their pharmacological effects are simpler and more predictable.
Supplementary file pone.0112088.s004.tif: Figure S4 The agonist potencies of PQ1–5. (A) Representative traces of single-channel recordings in the presence of individual PEG-QA (10 µM in the pipette solution without other agonists). Pipette potential was held at +70 mV, and the currents are shown as upward deflections. (B) The effect of QA structure on the open probability of the AChR (defined as [drawing 1] , where N max is the maximal number of simultaneously open channels and Po,i is the fraction of time in which i channels open simultaneously). Data are plotted in log-scale in order to present the low NPo values of PQ3 and PQ5. (C) The effect of QA structure on the mean open time of the AChR. […]

[3] = previously reported open-channel blockers
[4] = previously reported open-channel blockers, ref Table S1 refs 1-14, read-out: Kd (= k–B/k+B)
[5] = 100 µM ACh, +70 mV, predominant blockade mode
[6] = predominant blockade mode, 100 µM ACh, +70 mV, read-out: Kd (= k–B/k+B) for the open AChR pore
[7] = 20 µM blocker, held at +50, +70, +100, +130 mV

T1 sequence (P04756 21-457 V433A): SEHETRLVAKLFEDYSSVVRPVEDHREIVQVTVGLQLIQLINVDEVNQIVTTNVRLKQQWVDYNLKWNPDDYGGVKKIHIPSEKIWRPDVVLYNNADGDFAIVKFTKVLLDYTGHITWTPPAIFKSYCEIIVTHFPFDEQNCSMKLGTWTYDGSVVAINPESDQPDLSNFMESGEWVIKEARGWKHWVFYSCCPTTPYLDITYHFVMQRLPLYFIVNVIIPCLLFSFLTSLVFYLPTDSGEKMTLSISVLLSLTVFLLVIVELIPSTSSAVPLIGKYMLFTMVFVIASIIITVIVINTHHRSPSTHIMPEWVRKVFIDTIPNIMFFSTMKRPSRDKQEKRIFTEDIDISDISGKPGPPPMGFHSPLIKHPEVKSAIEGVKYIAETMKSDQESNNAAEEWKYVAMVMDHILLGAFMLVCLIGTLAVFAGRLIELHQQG
T1 sequence (P09690 24-501): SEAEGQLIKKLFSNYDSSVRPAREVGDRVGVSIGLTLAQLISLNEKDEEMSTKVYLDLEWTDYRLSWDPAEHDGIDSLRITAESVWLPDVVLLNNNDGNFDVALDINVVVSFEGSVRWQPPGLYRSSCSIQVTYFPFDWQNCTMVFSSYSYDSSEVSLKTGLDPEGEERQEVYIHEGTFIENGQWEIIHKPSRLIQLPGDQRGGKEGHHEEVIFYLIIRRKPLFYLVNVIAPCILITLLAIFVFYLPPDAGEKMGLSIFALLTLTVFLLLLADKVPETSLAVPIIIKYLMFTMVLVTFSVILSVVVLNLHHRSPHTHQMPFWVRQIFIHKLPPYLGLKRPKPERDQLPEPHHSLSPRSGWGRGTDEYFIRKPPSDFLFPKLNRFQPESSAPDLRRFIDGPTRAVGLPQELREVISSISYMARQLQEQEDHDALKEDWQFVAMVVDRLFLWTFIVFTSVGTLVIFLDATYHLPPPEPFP
T1 sequence (P02716 25-520): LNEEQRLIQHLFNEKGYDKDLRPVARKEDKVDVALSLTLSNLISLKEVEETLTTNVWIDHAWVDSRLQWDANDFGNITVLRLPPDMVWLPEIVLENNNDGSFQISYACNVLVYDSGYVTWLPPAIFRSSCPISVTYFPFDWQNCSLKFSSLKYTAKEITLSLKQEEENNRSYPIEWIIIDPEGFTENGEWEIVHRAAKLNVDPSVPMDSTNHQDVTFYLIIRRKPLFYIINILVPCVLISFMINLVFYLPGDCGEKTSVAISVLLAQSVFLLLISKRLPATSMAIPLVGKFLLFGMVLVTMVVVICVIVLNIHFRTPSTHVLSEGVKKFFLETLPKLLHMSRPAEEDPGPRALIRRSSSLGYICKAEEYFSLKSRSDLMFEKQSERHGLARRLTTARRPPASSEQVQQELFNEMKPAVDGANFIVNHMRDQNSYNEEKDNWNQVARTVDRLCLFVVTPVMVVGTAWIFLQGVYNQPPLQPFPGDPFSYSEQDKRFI
T1 sequence (P20782 21-493): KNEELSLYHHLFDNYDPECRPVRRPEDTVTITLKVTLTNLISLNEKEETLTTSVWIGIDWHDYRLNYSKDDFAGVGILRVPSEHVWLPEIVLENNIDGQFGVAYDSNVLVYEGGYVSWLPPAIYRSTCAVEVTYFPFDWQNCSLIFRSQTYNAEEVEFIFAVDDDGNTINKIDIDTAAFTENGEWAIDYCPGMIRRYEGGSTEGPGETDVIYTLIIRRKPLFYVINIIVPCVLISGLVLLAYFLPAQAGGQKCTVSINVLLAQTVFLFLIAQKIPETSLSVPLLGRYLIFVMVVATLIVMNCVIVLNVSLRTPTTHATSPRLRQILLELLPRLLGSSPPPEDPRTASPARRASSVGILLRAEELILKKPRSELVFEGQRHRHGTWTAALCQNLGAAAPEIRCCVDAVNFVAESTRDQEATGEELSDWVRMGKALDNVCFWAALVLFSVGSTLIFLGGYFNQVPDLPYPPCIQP

SMILES	blocking rate constant k+B (muscle-type AChR; [3]) [M⁻¹ s⁻¹]	unblocking rate constant k–B (muscle-type AChR; [3])	Kd (muscle-type AChR; [4]) [µM]	further results
C[C@]12N[C@H](Cc3ccccc31)c1ccccc12 [MK-801]	2e+07	48 s⁻¹	2.4	
COc1cc2c3cc1Oc1cc(ccc1O)C[C@@H]1c4c(cc(OC)c(O)c4Oc4ccc(cc4)C[C@@H]3N(C)CC2)CC[N+]1(C)C [(+)-tubocurarine]	3e+06	0.8 s⁻¹	0.27	
Br.C[N+](C)(C)CCCCCNCC12CC3CC(CC(C3)C1)C2.[Br-] [IEM-1460]	7.2e+07	858 s⁻¹	12	
C[N+](C)(C)CCOCCOCCOCCOCCOCCOCCOCC[N+](C)(C)C [PQ0]				Kd (muscle-type AChR; prototype PEG-trimethylammonium blockers, read-out: Kd for the AChR pore): 9 ± 2 µM
CC[N+](CC)(CC)CC(=O)Nc1c(C)cccc1C [QX-314]	1.9e+07	~ 30 s^−1	~1	
Cc1cccc(C)c1NC(=O)C[N+](C)(C)C [QX-222]	2.1e+07	~ 600 s^−1	~30	
Nc1nnc(-c2cccc(Cl)c2Cl)c(N)n1 [lamotrigine]	6.2e+06	575 s⁻¹	93	
CNC1(c2ccccc2Cl)CCCCC1=O (stereo not shown) [ketamine]	3e+06	100 s⁻¹	33	
CC(=O)OCC[N+](C)(C)C [acetylcholine]	3.7e+07	56000 s⁻¹	1200	
CC[N+](CC)(CC)CCOCCOCCOCCOCCOCCOCCOCC[N+](CC)(CC)CC [PQ4]				effect on apparent mean open time (τapp) ([1]; +70 mV): dose-dependent decrease; unblocking rate constant k–B [1, 5]: 4 ± 3 s⁻¹; blocking rate constant k+B [1, 5]: 2.2e+07 M⁻¹ s⁻¹; Kd [1, 6]: 0.19 ± 0.15 µM
C[N+]1(CCOCCOCCOCCOCCOCCOCCOCC[N+]2(C)CCCCC2)CCCCC1 [PQ2]				Kd [1]: 0.08 ± 0.09 µM; effect on apparent mean open time (τapp) ([1]; +70 mV): dose-dependent decrease; unblocking rate constant k–B [1, 5]: 2 ± 2 s⁻¹; blocking rate constant k+B [1, 5]: 2.9e+07 ± 7e+06 M⁻¹ s⁻¹
CN1CCCN=C1/C=C/c1cccs1 [pyrantel]	8e+07	667 s⁻¹	8	
CCN(CC)CCOC(=O)c1ccc(N)cc1 [procaine]	2e+06	200 s⁻¹	100	
C[N+](C)(C)CCO [choline]			12500	
CNC(=O)Oc1ccc2c(c1)[C@]1(C)CCN(C)[C@@H]1N2C [physostigmine]	2e+07	450 s⁻¹	23	
CCC[N+](C)(CCC)CCOCCOCCOCCOCCOCCOCCOCC[N+](C)(CCC)CCC [PQ5]				voltage dependence of k+B [1, 7]: increases with membrane hyperpolarization; voltage dependence of τapp [1, 7]: decreases with hyperpolarizing; effect on apparent mean open time (τapp) ([1]; +70 mV): dose-dependent decrease; unblocking rate constant k–B [1, 5]: 2 ± 1 s⁻¹; blocking rate constant k+B [1, 5]: 1.5e+07 ± 1e+06 M⁻¹ s⁻¹; Kd [1, 6]: 0.12 ± 0.09 µM; agonist potency (channel open probability and opening duration with compound alone) [2]: poor agonists
CC(C)(C)NCC(O)c1ccc(O)c(CO)c1 (stereo not shown) [albuterol]	4.3e+07	1042 s⁻¹	24	
C[N+]1(CCOCCOCCOCCOCCOCCOCCOCC[N+]2(C)CCCC2)CCCC1 [PQ1]				effect on apparent mean open time (τapp) ([1]; +70 mV): dose-dependent decrease; unblocking rate constant k–B [1, 5]: 64 ± 14 s⁻¹; blocking rate constant k+B [1, 5]: 2e+07 ± 4e+06 M⁻¹ s⁻¹; predominant blockade mode ([1]; faster- vs slower-dissociation mode): faster-dissociation mode; Kd [1, 6]: 3 ± 1 µM
CC[N+](CC)(CC)CC [tetraethylammonium]				Kd (muscle-type AChR; read-out: Kd (= k–B/k+B)): 2700 µM
CC[N+]1(CCOCCOCCOCCOCCOCCOCCOCC[N+]2(CC)CCCCC2)CCCCC1 [PQ3]				effect on apparent mean open time (τapp) ([1]; +70 mV): dose-dependent decrease; unblocking rate constant k–B [1, 5]: 4 ± 2 s⁻¹; blocking rate constant k+B [1, 5]: 2.2e+07 ± 6e+06 M⁻¹ s⁻¹; Kd [1, 6]: 0.17 ± 0.12 µM; agonist potency (channel open probability and opening duration with compound alone) [2]: poor agonists
